Test results published in patent publication US20250361271A1, “PEPTIDE AGONIST” (THE UNIVERSITY OF BIRMINGHAM, priority 2022, published 2025).
Where a SMILES comes first, the peptide text is derived from it. [ ]: non-standard residue; d: D form. d(pGlu) = O=C1CC[C@H](C(=O)O)N1; pGlu = O=C1CC[C@@H](C(=O)O)N1; Aib = CC(C)(N)C(=O)O

Assays:
[1] = assay type: in vitro ADME, pig
Method: Pig eyes were treated with either […] or one of TVS (reverse sequence of SVT comprising amino acids in D-isomeric forms), […] and QGA, derived from the […] sequence. The eyes were then incubated in a dark humified chamber. The eyes were dissected, and the vitreous humour and retina were harvested. The samples were sonicated to break up the tissue and purified using a C18 column. Once purified, the samples were digested and analysed by mass spectrometry.

[2] = system: PBLs on cytokine stimulated HDBECs; settings: for % Inhibition (0.3 nM): 0.3 nM peptide; for % Inhibition (0.3 nM) / % Inhibition (3 nM): inhibition of PBL transmigration (as a percentage of adherent cells); for % Inhibition (3 nM): 3 nM peptide; for effectiveness in inhibiting PBL transmigration compared with PEPITEM (% Inhibition at 0.3 and/or 3 nM): PEPITEM 41.90
Method: Blood samples were obtained from consensual healthy donors and were collected in EDTA tubes (Sigma-Aldrich). […] 5 ml of blood was layered on top of the density gradient, and was centrifuged at 2500 rpm for 45 minutes. […] The PBMCs were washed twice for 7 minutes at 1500 rpm. Peripheral blood lymphocytes (PBLs) were isolated via panning PBMCs onto a culture flask for 30 minutes at 37° C., allowing monocytes to adhere.
HDBECS defrosted at 37° C. in a 25 cm^2 cell culture flask in 10 ml of media were dissociated using EDTA (Sigma-Aldrich) and Trypsin (Gibco) and seeded on 10 wells in a 12-well tissue culture plates (Falcon) and left to adhere at 37° C. After 24 hours, confluent endothelial layers were cytokine stimulated using 100 U/ml TNF-α (Sigma-Aldrich) and 10 ng/ml IFN-γ (Peprotech) for 24 hours at 37° C. The peptide treatment of the 1×10^6 cells/ml PBLs consisted of adding the peptides immediately before use. […] 1×10^6 PBLs were added to each well and incubated at 37° C., allowing PBLs to adhere to migrate across the endothelium. […] Cells were then fixed with 2% glutaraldehyde for 10 minutes and then imaged using phase-contrast microscopy via an inverted bright-field microscope at 20× magnification.
Imaging of the PBL migration assay was carried out using ImagePro 7 software (Media Cybernetics). Surface adherent cells were categorised as being phase-bright, and transmigrated cells were categorised as phase-dark with altered morphology, appearing as being under the endothelial layer. Images were taken at 5 different fields of each well, and an average of counted adherent and migrated PBLs was calculated.
The same methods described for the in vitro transmigration assay and analysis were used, and PBL transmigration was calculated as a percentage of adherent cells. Peptides were added to the PBLs at concentrations ranging from 0.0001-500 ng/ml on the cytokine stimulated HDBECs and the resulting PBL transmigration (as a percentage of adherent cells) was plotted as a function of log10 of the peptide concentration.
The peptides were added at concentration of 20 ng/ml and run alongside untreated PBL (PBL0) and scrambled protein to analyse their effects on adhesion and transmigration.

T1/2 in plasma (mouse) = assay type: in vitro ADME; settings: for half-life: mouse, plasma, 1 μM peptide, 37° C.; for stability compared with PEPITEM: in mouse plasma, human plasma, and or mouse blood
Excerpt: Take all measurements in duplicate.

[3] = system: primary murine calvarial osteoblasts; assay: Alkaline phosphatase activity, murine osteoblasts; assay type: cell-based, mouse; settings: 8 days, vs untreated cells, FIG. 5b
Method: Skin was removed from around calvaria using forceps, and the calvaria was dissected out and cleaned of any contaminating tissue. Calvaria were added to αMEM media supplemented with 1 mg/ml of collagenase d (Roche, Basel, Switzerland, COLLD-RO). Tubes were then agitated at 37° C. for 10 minutes and the media discarded. αMEM media supplemented with 1 mg/ml of collagenase d was again added to calvaria and shaken at 37° C. for 30 minutes. Media (containing cells) was then removed and kept on ice. The calvaria were then again shaken at 37° C. for 10 minutes in 1.5 ml of αMEM media supplemented with 5 μM EDTA (Sigma-Aldrich, E7889) and the cell containing media transferred to the sample on ice, pooling the cells. […] Cells on ice were then spun down at 300 g for 4 minutes, resuspended in 1 ml of Basal media and counted using a haemocytometer. […] Mineralisation was assessed by quantifying the level of alkaline phosphate (ALP) activity (absorbance at 405 nm) per condition normalized to the absorbance generated by the untreated control (control on the graph). […] The plate was wrapped in foil and left to run for 45 minutes at 37° C. in an incubated shaker (SciQuip; Shropshire, UK) before being quantified using a Synergy HT plate reader (BioTek) with absorbance set at 405 nm.

Method for T1/2 in blood (mouse): Store at −20° C. or on ice. • 2) Thaw the blood and spin in a centrifuge at 1500×g for 10 minutes at room temperature. • 3) Prepare stock solution of the peptide at 10 mM in DMSO or PBS and dilute solutions by adding 3 μL of 10 mM stock to 297 μL DMSO or PBS (100 μM stock for a final 1 μM concentration). • 4) Add 550 μL blood to an incubation tube and separately add 4 μL of peptide stock solution to an incubation tube. Warm the incubation tubes (5 minutes, 37° C., with shaking). • 5) After warming, add 396 μL of warmed blood to warmed peptide (time=0). Mix well and shake the tube containing the mixed sample (37° C., 1400×g). • 6) At 2, 5, 15, 30, 45 and 60 minutes after contacting the peptide and blood, collect 40 μL of the sample into pre-prepared quench tubes. • 7) Analyse the sample at each time point by mass spectrometry. Take all measurements in duplicate.
The samples were analysed and the T1/2 values were calculated by XenoGesis. The T1/2 values correspond to the time taken for the concentration of the peptide in the blood or plasma to be reduced by 50%.

Row | Compound | % Inhibition (0.3 nM) [2] [%] | % Inhibition (3 nM) [2] [%] | half-life (T1/2 in plasma (mouse)) [h] | further results
1 | EGA | – | – | – | eye tissue in which the peptide was found by mass spectrometry [1]: Retina only
2 | COC[C@H](N)C(=O)N[C@H](C(=O)N[C@H](C(N)=O)[C@@H](C)O)C(C)C [SEQ ID NO. 12, H-S(OMe)VT-NH2] (H-Ser(Me)-Val-Thr-NH2) | 34.72 | 62.27 | – | effectiveness in inhibiting PBL transmigration compared with PEPITEM (% Inhibition at 0.3 and/or 3 nM) [2]: more effective
3 | CC(C)[C@H](NC(=O)CNC(=O)[C@@H]1CCC(=O)N1)C(N)=O [SEQ ID NO. 31, pEGV-NH2] ([pGlu]-Gly-Val-NH2) | 49.94 | 50.27 | – | half-life (T1/2 in blood (mouse); whole blood): > 3 h
4 | CCCCCCNC(=O)[C@@H](NC(=O)[C@@H](NC(=O)[C@@H](N)CO)C(C)C)[C@@H](C)O [SEQ ID NO. 13, H-SVT-NH-Hexyl] | 23.56 | 12.83 | – | –
5 | H-S*VT-NH2 [SEQ ID NO. 7] | 9.50 | – | – | –
6 | SVTQAA [SEQ ID NO. 40] | – | – | – | PBL transmigration ([2]; PBL0 37%, FIG. 4): 23%; effect on PBL transmigration ([2]; compared to untreated PBL (PBL0), 20 ng/ml): significant (p<0.01) fall in PBL transmigration
7 | CCNC(=O)[C@H](C)NC(=O)CNC(=O)[C@H](CCC(N)=O)NC(C)=O [SEQ ID NO. 24, Ac-QGA-NH-Ethyl] (Ac-Gln-Gly-Ala-NHEt) | 50.00 | – | – | effectiveness in inhibiting PBL transmigration compared with PEPITEM (% Inhibition at 0.3 and/or 3 nM) [2]: more effective
8 | C[C@@H](O)[C@H](NC(=O)[C@H](Cc1ccccc1)NC(=O)[C@@H](N)CO)C(N)=O [SEQ ID NO. 16, H-SFT-NH2] (H-Ser-Phe-Thr-NH2) | 39.78 | 33.33 | – | –
9 | CC(C)[C@H](NC(=O)[C@@H](N)CO)C(=O)N[C@@H](CO)C(N)=O [SEQ ID NO. 9, H-SVS-NH2] (H-Ser-Val-Ser-NH2) | 42.51 | 38.10 | 1.72 | effectiveness in inhibiting PBL transmigration compared with PEPITEM (% Inhibition at 0.3 and/or 3 nM) [2]: more effective
10 | CC(C)C[C@H](NC(=O)[C@@H](N)CO)C(=O)N[C@H](C(N)=O)[C@@H](C)O [SEQ ID NO. 15, H-SLT-NH2] (H-Ser-Leu-Thr-NH2) | 46.00 | 20.75 | 0.117 | effectiveness in inhibiting PBL transmigration compared with PEPITEM (% Inhibition at 0.3 and/or 3 nM) [2]: more effective
11 | CC(C)[C@H](NC(=O)[C@@H](N)[C@@H](C)O)C(=O)N[C@H](C(N)=O)[C@@H](C)O [SEQ ID NO. 8, H-TVT-NH2] (H-Thr-Val-Thr-NH2) | 45.47 | 48.19 | 0.283 | effectiveness in inhibiting PBL transmigration compared with PEPITEM (% Inhibition at 0.3 and/or 3 nM) [2]: more effective
12 | C[C@@H](NC(=O)CNC(=O)[C@H]1CCC(=O)N1)C(N)=O [SEQ ID NO. 28, pE*GA*-NH2] ([d(pGlu)]-Gly-[dA]-NH2) | – | – | – | half-life (T1/2 in blood (mouse)): 1.17 h
13 | CNC(=O)[C@H](C)NC(=O)CNC(=O)[C@@H]1CCC(=O)N1 [SEQ ID NO. 29, pEGA-NHMe] ([pGlu]-Gly-Ala-NHMe) | 40.89 | 43.35 | – | half-life (T1/2 in blood (mouse); whole blood): 1.62 h
14 | CC(C)C[C@H](NC(=O)CNC(=O)[C@@H]1CCC(=O)N1)C(N)=O [SEQ ID NO. 32, pEGL-NH2] ([pGlu]-Gly-Leu-NH2) | 25.34 | 58.16 | – | –
15 | CC[C@H](C)[C@H](NC(=O)[C@@H](N)CO)C(=O)N[C@H](C(N)=O)[C@@H](C)O [SEQ ID NO. 14, H-SIT-NH2] (H-Ser-Ile-Thr-NH2) | 3.40 | 28.23 | – | –
16 | TSV | – | – | – | ALP activity (maturation mineralisation), murine osteoblasts [3]: significantly increased
17 | CC(=O)N[C@H](CCC(N)=O)C(=O)NCC(=O)N[C@H](C)C(N)=O [SEQ ID NO. 26, Ac-Q*GA*-NH2] | – | – | > 3 | stability compared with PEPITEM (T1/2 in plasma (mouse)): at least as stable; IC50 [2]: 0.018 nM
18 | CCNC(=O)[C@H](C)NC(=O)CNC(=O)[C@@H]1CCC(=O)N1 [SEQ ID NO. 22, pEGA-NH-Ethyl] ([pGlu]-Gly-Ala-NHEt) | 35.40 | – | > 3 | –
19 | C[C@H](NC(=O)CNC(=O)[C@@H]1CCC(=O)N1)C(N)=O [SEQ ID NO. 23, pEGA-NH2] ([pGlu]-Gly-Ala-NH2) | 54.50 | – | > 3 | IC50 [2]: 0.0032 nM; effectiveness in inhibiting PBL transmigration compared with PEPITEM (% Inhibition at 0.3 and/or 3 nM) [2]: more effective; potency at inhibiting the transmigration of T cells compared with PEPITEM (IC50) ([2]; PEPITEM IC50 0.02): more potent
20 | CC(=O)N[C@@H](CO)C(=O)N[C@H](C(=O)N[C@H](C(=O)O)[C@@H](C)O)C(C)C [SEQ ID NO. 3, Ac-SVT] (Ac-Ser-Val-Thr-OH) | – | 36.80 | – | –
21 | CC(=O)N[C@@H](CCC(N)=O)C(=O)NCC(=O)NC(C)(C)C(=O)O [SEQ ID NO. 25, Ac-QGAib] (Ac-Gln-Gly-[Aib]-OH) | 32.00 | – | – | –
22 | C[C@@H](O)[C@H](NC(=O)[C@H](Cc1ccc(O)cc1)NC(=O)[C@@H](N)CO)C(N)=O [SEQ ID NO. 18, H-SYT-NH2] (H-Ser-Tyr-Thr-NH2) | 39.18 | 42.83 | 0.283 | effectiveness in inhibiting PBL transmigration compared with PEPITEM (% Inhibition at 0.3 and/or 3 nM) [2]: more effective
23 | H-S*V*T*-NH2 [SEQ ID NO. 10] | 24.76 | 39.51 | – | –
24 | CC(C)[C@@H](NC(=O)[C@H](N)[C@H](C)O)C(=O)N[C@H](CO)C(N)=O (relative stereo) [SEQ ID NO. 11, H-T*V*S*-NH2] | – | – | > 3 | stability compared with PEPITEM (T1/2 in plasma (mouse)): at least as stable; IC50 [2]: 0.024 nM; eye tissue in which the peptide was found by mass spectrometry [1]: Retina only
25 | NC(=O)[C@H](Cc1ccccc1)NC(=O)CNC(=O)[C@@H]1CCC(=O)N1 [SEQ ID NO. 33, pEGF-NH2] ([pGlu]-Gly-Phe-NH2) | 49.15 | 42.84 | – | half-life (T1/2 in blood (mouse); whole blood): 2.43 h
26 | CC(=O)N[C@@H](CO)C(=O)N[C@H](C(=O)N[C@H](C(N)=O)[C@@H](C)O)C(C)C [SEQ ID NO. 5, Ac-SVT-NH2] (Ac-Ser-Val-Thr-NH2) | – | 42.50 | 1.98 | effectiveness in inhibiting PBL transmigration compared with PEPITEM (% Inhibition at 0.3 and/or 3 nM) [2]: more effective
27 | C[C@H](NC(=O)CNC(=O)[C@@H]1CCC(=O)N1)C(=O)N(C)C [SEQ ID NO. 30, pEGA-N(Me)2] ([pGlu]-Gly-Ala-NMe2) | 44.70 | 42.65 | – | half-life (T1/2 in blood (mouse); whole blood): > 3 h
